Where a name gives a salt, the structure may show the parent alone. Values belong to the compound of their own block, whether it stands above or below them.
Experiments:
[1] = in vivo; conditions: male, Wistar, rat, plasma
Method: A serial blood sampling was performed from each animal. The blood samples were collected at 0.00 (pre-dose), 0.08, 0.25, 0.5, 1, 2, 4, 6, 8, 24 hrs. […] Pharmacokinetic parameters were calculated using the non-compartmental analysis (NCA) module of Phoenix-WinNonlin® software version 6.4.

[2] = in vivo
Method: A serial blood sampling was performed from each animal. The blood samples were collected at 0.00 (pre-dose), 0.083, 0.25, 0.5, 1, 2, 4, 6, 8, 24 hrs. […] Pharmacokinetic parameters were calculated using the non-compartmental analysis (NCA) module of Phoenix-WinNonlin® software version 6.4.

[3] = intranasal, 0.05, 0.1 and 0.2 mg/kg, rats
[4] = in vivo; conditions: male, Wistar, rat, inhaled or intranasal, mean ± SD, N=4; for half-life: T½
[5] = humans, cited from earlier work
[6] = endocyclic and exocyclic double bonds to epoxides; tertiary amine to N-oxide; cited from earlier work
[7] = inhaled or intranasal, 0.02 mg/kg
[8] = New Zealand white, rabbit, plasma, inhaled or intranasal, 0.011 mg/kg
[9] = male, Wistar, rat, inhaled or intranasal, 0.4 mg/kg
[10] = male, Wistar, rat, po, 1.05 mg/kg
[11] = male, beagle, dog, plasma, inhaled or intranasal, 0.26 mg/kg
[12] = male, beagle, dog, plasma, po, 0.51 mg/kg
[13] = in vivo, planned 0.2 mg/kg (actual 0.14 mg/kg)
[14] = plasma, planned 0.05 mg/kg (actual 0.03 mg/kg)
[15] = plasma, planned 0.1 mg/kg (actual 0.07 mg/kg)

- AUC(0-inf) [1, 7]: 2.59 ng·h/mL
- AUC(0-t) [1, 7]: 2.32 ng·h/mL
- Cmax [1, 7]: 2.83 ng/mL
- Tmax [1, 7]: 4.98 min
- half-life [1, 7]: 64.5 min
- AUC(0-inf) ([1]; po, 0.885 mg/kg): 3.26 ng·h/mL
- AUC(0-t) ([1]; po, 0.885 mg/kg): 2.54 ng·h/mL
- Cmax ([1]; po, 0.885 mg/kg): 1.2 ng/mL
- Tmax ([1]; po, 0.885 mg/kg): 60 min
- half-life ([1]; po, 0.885 mg/kg): 157 min
- AUC(0-inf) [2, 8]: 0.92 ng·h/mL
- AUC(0-t) [2, 8]: 0.52 ng·h/mL
- Cmax [2, 8]: 0.56 ng/mL
- MRT inf [2, 8]: 2.43 h
- MRT last [2, 8]: 52.2 min
- Vd/F [2, 8]: 28.6 L/kg
- Cl—F—pred ([2]; intranasal, 0.011 mg/kg): 199.56 mL/min/kg
- HL—Lambda—z ([2]; intranasal, 0.011 mg/kg): 1.65 h
- DNAUC (AUC normalized at 1 mg/kg dose) ([2]; intranasal, 0.26 mg/kg): 385.92
- DNAUC (AUC normalized at 1 mg/kg dose) ([2]; male, Wistar, rat, inhaled or intranasal): 130.85
- AUC(0-inf) [2, 9]: 52.3 ± 12.8 ng·h/mL
- AUC(0-t) [2, 9]: 51.2 ± 12.8 ng·h/mL
- Cmax [2, 9]: 31.3 ± 10.1 ng/mL
- half-life [2, 9]: 167 ± 141 min
- DNAUC (AUC normalized at 1 mg/kg dose) ([2]; male, Wistar, rat, po): 3.11
- AUC(0-inf) [2, 10]: 3.27 ± 0.42 ng·h/mL
- AUC(0-t) [2, 10]: 2.98 ± 0.42 ng·h/mL
- Cmax [2, 10]: 1.74 ± 0.95 ng/mL
- half-life [2, 10]: 85.8 ± 19.8 min
- AUC(0-inf) [2, 11]: 103 ± 26.2 ng·h/mL
- AUC(0-t) [2, 11]: 100 ± 25.9 ng·h/mL
- Cmax [2, 11]: 62.3 ± 13.8 ng/mL
- Tmax [2, 11]: 4.98 min
- half-life [2, 11]: 365 ± 136 min
- AUC(0-inf) [2, 12]: 7.58 ± 5.64 ng·h/mL
- AUC(0-t) [2, 12]: 7.03 ± 5.65 ng·h/mL
- Cmax [2, 12]: 1.61 ± 1.21 ng/mL
- Tmax [2, 12]: 90 min
- half-life [2, 12]: 122 ± 38.4 min
- Plasma concentrations ([2]; oral, 0.442 mg/kg, n=4, rabbits): below the limit of quantification
- DNAUC (AUC normalized at 1 mg/kg dose) ([2]; oral, 0.51 mg/kg): 13.52
- Tmax ([2]; rat, inhaled or intranasal, 0.4 mg/kg): 4.98 min
- Tmax ([2]; rat, po, 1.05 mg/kg): 0.5 (0.25-1.0) Hour
- Bioavailability versus dose [3]: Dose dependent linear bioavailability
- AUC(0-t) [4, 13]: 22.4 ± 10.1 ng·h/mL
- half-life ([4]; in vivo, planned 0.05 mg/kg (actual 0.03 mg/kg)): 114 ± 18 min
- half-life ([4]; in vivo, planned 0.1 mg/kg (actual 0.07 mg/kg)): 96 ± 12 min
- half-life [4, 13]: 132 ± 18 min
- AUC(0-t) [4, 14]: 4.8 ± 1.4 ng·h/mL
- AUC(0-t) [4, 15]: 10.6 ± 3 ng·h/mL
- Cmax [4, 14]: 4.6 ± 1.7 ng/mL
- Cmax [4, 15]: 16.4 ± 11.6 ng/mL
- Cmax ([4]; plasma, planned 0.2 mg/kg (actual 0.14 mg/kg)): 27.6 ± 26.4 ng/mL
SMILES: CN(C)CCC=C1c2ccccc2C=Cc2ccccc21 [cyclobenzaprine, 3-(5H-Dibenzo[a,d]cyclohepten-5-ylidene)-N,N-dimethyl-1-propanamine]
- plasma clearance [5]: 0.7 L/min
- effective half-life ([5]; range 8-37 hours, n=18): 18 h
- stability towards oxidation [6]: very unstable

SMILES: CN(C)CCC=C1c2ccccc2C=Cc2ccccc21 [Cyclobenzaprine hydrochloride, cyclobenzaprine hydrochloride]
- dose excreted in the urine as unchanged drug ([5]; study with 14C-labelled drug): about 1%

Source: US20220339124A1 (CADILA HEALTHCARE LIMITED, priority 2019, published 2022)
